# Measured values published in patent publication US20030118649A1, “Drug delivery devices and methods” (priority 2001, published 2003).
# Tests used:
# [1] = Fluorescence imaging of doxorubicin distribution in rabbit livers after millirod implantation; settings: in vivo
# Experimental: In accordance with the present invention, we developed a fluorescence imaging method to analyze doxorubicin distribution in rabbit liver tissues. First, we determined the calibration curve to correlate fluorescence intensity with doxorubicin concentration in liver tissues. Second, we estimated the sensitivity limit (0.6 μg/g of liver tissue) for doxorubicin detection by this method. This value is well below the cytotoxic concentrations of doxorubicin to VX-2 cells (˜6.4 μg/g). (Ridge, J. A., Collin, C., Bading, J. R., Hancock, C., Conti, P. S., Daly, J. M. and Raaf, J. H. (1988) Cancer Res 48(16), 4584-7. Third, we used this method to quantify the dynamics of drug distribution in ablated and non-ablated rabbit livers over time. The detailed experimental procedure of the fluorescence imaging method is described below.
# FIG. 14 compares the 2D doxorubicin distribution profiles between non-ablated and thermoablated liver tissues. In this set of experiments, a monolithic millirod with burst release kinetics (millirod (a) in FIG. 2) was implanted in either non-ablated or thermoablated livers. […] White dashed lines in the figures represent the ablated-normal tissue boundary, which was obtained by comparing the fluorescence image with an optical image of histology slides where this boundary is well-defined (see next section).
# [2] = tested on: VX-2 cells; settings: Ridge et al. 1988; cited from earlier work
# [3] = Structural integrity of doxorubicin after millirod fabrication (NMR); type: physicochemical; settings: compression-heat molding, 90° C., 2 hours
# Experimental: These devices are prepared as a monolithic system using a compression-heat-molding procedure that has been developed. (Qian, F., Szymanski, A. and Gao, J. (2001) J. Biomed. Mater. Res. 55, 512-522.) Briefly, doxorubicin solution (2 mg/mL, also containing 0.9% NaCl) from Bedford Laboratories is first dialyzed in distilled water to remove the NaCl. […] The well-mixed particles are placed in a Teflon tube and molded into a polymer millirod at a compression pressure of 4.6×10^6 Pa and a fabrication temperature at 90° C. for 2 hours.
# Determination of the structural integrity of released doxorubicin. Released doxorubicin in PBS is desalted by gel filtration column chromatography (G-10 column, Pharmacia). Samples are lyophilized and characterized by ^1H and ^13C nuclear magnetic resonance (NMR) and mass spectrometry to examine their structural integrity. In NMR analysis, lyophilized agents are dissolved in deuterated methanol and spectrum will be obtained on a 300 MHz ^1H NMR instrument (Bruker). The chemical shifts of the released agents are compared to the pure compound to detect possible structural decomposition.
smiles,measurement,setting,value
COc1cccc2c1C(=O)c1c(O)c3c(c(O)c1C2=O)C[C@@](O)(C(=O)CO)C[C@@H]3O[C@H]1C[C@H](N)[C@H](O)[C@H](C)O1 [doxorubicin],concentration at 24 h,[1],50000 ng/g
same,cytotoxic concentration of doxorubicin,[2],~6.4 µg/g
same,structure of doxorubicin after fabrication,[3],remained intact
